Experiments:
[1] = tested on: metastatic basal cell cancer; details: for response to earlier therapy: brain, bone and liver metastases, therapies before nivolumab
From the text: The interaction of this ligand (PD-L1) with the programmed death receptor (PD-1), expressed on T and B cells, alters the function of these cells leading to inhibition of autoimmunity and anti-tumor immunity.
The patient was started on nivolumab (OPDIVO®, anti-PD-1 antibody).

[2] = tested on: hepatocellular carcinoma (HCC) with CDKN2A and CTNNB1 mutations; assay: Clinical outcome of hepatocellular carcinoma patient (Example 1); type: in vivo, human; details: metastatic HCC after chemoembolization, before molecular profiling
From the text: Six months later, the physician logs in to the system via the web-interface and completes the physician's feedback survey regarding the regimen prescribed to their patient and the outcome observed. […] The entry corresponding to this observation was created in the clinical outcome database and will then be used in order to optimize similar cases.

[3] = Tolerability in type 2 diabetes patient (Example 6); type: in vivo, human
From the text: A person over-weight man (Body Mass Index=37.5, clinical obesity class 2) with a 5-year history of type 2 diabetes consults a Diabetes Specialty Clinic in Paris (France) for recent weight gain, foot pain, and persistent nocturia. At the time of their initial appointment, the patient was taking simvastatin (ZOCOR®) for a hyperlipidemia and a “pancreatic elixir” in an attempt to improve their diabetes control. […] The laboratory tests performed the same day confirms the uncontrolled type 2 diabetes (evaluated by a level of glycosylated hemoglobin=8.3%-normal<7%), a normo-lipidemia, and an elevated urine micro-albumin level. The physician ordered a urine metabolite profiling. The post-analysis review of the results highlighted the upregulation of the IL-1 (interleukin 1), TNF (Tumor Necrosis Factor), and mTOR (Mammalian Target of Rapamycin) signaling pathways.
The association of IL-1 and TNF inhibitors together is not considered by the system, as it increases the risk of serious infections. […] All of these drugs are approved by the ANSM (French Agency for Medicines and Medical Products Security).

## nivolumab: anti-PD-1 antibody
[1]; after two months, PD-L1 (CD274) amplification
  response on scans: remarkable partial remission
[1]; human, in vivo
  toxicity: no toxicity

## CC(=O)O[C@H]1C(=O)[C@@]2(C)[C@H]([C@H](OC(=O)c3ccccc3)[C@]3(O)C[C@H](OC(=O)[C@H](O)[C@@H](NC(=O)c4ccccc4)c4ccccc4)C(C)=C1C3(C)C)[C@]1(OC(C)=O)CO[C@@H]1C[C@@H]2O [paclitaxel]
[1]
  response to earlier therapy: short-lived response

## N.N.[Cl][Pt][Cl] [cisplatin]
[1]
  response to earlier therapy: short-lived response

## CS(=O)(=O)c1ccc(C(=O)Nc2ccc(Cl)c(-c3ccccn3)c2)c(Cl)c1 [vismodegib]
[1]
  response to earlier therapy: non-responsive

## CNC(=O)c1cc(Oc2ccc(NC(=O)Nc3ccc(Cl)c(C(F)(F)F)c3)cc2)ccn1 [sorafenib]
[2]
  disease course under treatment: continued to progress

## COc1ccc(Cl)cc1C(=O)NCCc1ccc(S(=O)(=O)NC(=O)NC2CCCCC2)cc1 [glibenclamide]
[3]; human, in vivo
  adverse effects that led to stopping the drug: dizziness, sweating, and agitation

## CCC(C)(C)C(=O)O[C@H]1C[C@@H](C)C=C2C=C[C@H](C)[C@H](CC[C@@H]3C[C@@H](O)CC(=O)O3)[C@H]21 [simvastatin]
[3]; taken for hyperlipidemia
  tolerability: well-tolerated

## Cc1c(C(=O)Nc2ccc(N3C[C@@H](C)O[C@@H](C)C3)nc2)cccc1-c1ccc(OC(F)(F)F)cc1 [sonidegib]
[1]
  response to earlier therapy: non-responsive

— patent US11434534B2, “Optimizing therapeutic options in personalized medicine” (CureMatch, Inc., priority 2016, dated 2022)
